Experimental data as given in patent publication US7087626B2, “Pyrrole derivatives as pharmaceutical agents” (Eli Lilly and Company, priority 2001, dated 2006).

The compounds below were run against T1, TGF-β Type I (RIT204D) receptor (Homo sapiens, UniProt P36897, T204D) (assay: TGF-β Receptor I (RIT204D) in vitro kinase reaction). Conditions: 6×-HIS cytoplasmic kinase domain, 4 uM ATP, 30° C., 1 hr.
T1 construct: The 6×-HIS tagged cytoplasmic kinase domain of each receptor was expressed and purified from Sf9 insect cell lysates; 6xHis; made in house; host or cells: Sf9 insect cells
T1 sequence (P36897 148-503 T204D limits assumed): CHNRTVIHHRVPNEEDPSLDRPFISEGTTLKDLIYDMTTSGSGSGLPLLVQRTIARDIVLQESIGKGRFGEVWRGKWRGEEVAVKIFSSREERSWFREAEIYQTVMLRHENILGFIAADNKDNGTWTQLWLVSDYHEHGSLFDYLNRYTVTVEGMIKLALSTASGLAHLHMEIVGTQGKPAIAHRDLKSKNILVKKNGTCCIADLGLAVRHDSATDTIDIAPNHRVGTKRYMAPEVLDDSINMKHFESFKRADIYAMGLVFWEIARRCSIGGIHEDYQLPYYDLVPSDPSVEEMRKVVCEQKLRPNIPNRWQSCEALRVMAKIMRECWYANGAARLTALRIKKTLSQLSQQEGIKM
Format: biochemical
Description: (§1) TGF-β Receptor I and II Purification and in vitro Kinase Reactions
(§2) For TGF-β Type I (RIT204D) and Type II (RII WT) Receptors: The 6×-HIS tagged cytoplasmic kinase domain of each receptor was expressed and purified from Sf9 insect cell lysates as briefly described below:
(§3) Cell pellets after 48-72 hrs of infection were lysed in lysis buffer (LB: 50 mM Tris pH 7.5, 150 mM NaCl, 50 mM NaF, 0.5% NP40 with freshly added 20 mM, β-mercaptoethanol, 10 mM imidazole, 1 mM PMSF, 1×EDTA-free Complete Protease Inhibitor (Boehringer Mannheim).
(§4) Reactions: 170-200 nM enzyme in 1×KB, compound dilution series in 1×KB/16% DMSO (20 uM to 1 nM final concentration with 4% DMSO final concentration), reactions started by adding ATP mix (4 uM ATP/1 uCi ^33P-[…]-ATP final concentrations) in 1×KB.
(§5) Reactions were incubated at 30° C. for 1 hr RIT204D or 40 min for RII WT. Reactions were stopped and quantitated using standard TCA/BSA precipitation onto Millipore FB glass fiber filter plates and by liquid scintillation counting on a MicroBeta JET.

IC50, < 20 µM:
CNC(=O)c1ccc2c(-c3c(-c4ccccn4)nn4c3CCC4)ccnc2c1 [4-(2-Pyridin-2-yl-5,6-dihydro-4H-pyrrolo[1,2-H]pyrazol-3-yl)-quinoline-7-carboxylic acid methylamide]

What follows are compounds tested on TGF-β dependent luciferase production in Mv1Lu C1 cells (p3TP-Lux reporter) (assay: MV1LU p3TP-Lux assay). Conditions: TGF-β1 10 pM, 16-20 hrs.
Format: cell-based
Text: A stable Mv1Lu clone (C1) containing the p3TP-Lux reporter was created by standard transfection and puromycin selection protocols. This stable clone was used to screen the example compounds for their ability to inhibit TGF-β dependent luciferase production as briefly described below: • 1. Plated Mv1Lu C1 cells in Wallac™ Black Isoplates • 2. Allowed cells to adhere overnight. • 3. Removed media and replaced with 0.5% FBS DMEM media • 4. Added the compound dilution series in 0.5% FBS/DMEM containing 1% DMSO such that the final compound concentration ranged from 20 uM to 0.1 nM and the final DMSO concentration was 0.2%. • 5. Incubated at 37° C./5% CO2 for 2 hrs. • 6. Added 0.5% FBS/DMEM as control or TGF-β1 diluted in 0.5% FBS/DMEM (final concentration of 10 pM) to the −/+ TGF-β wells respectively • 7. Incubated for 16-20 hrs. at 37° C./5% CO2 • 8. Removed media and rinsed 1× with PBS. • 9. Removed PBS and lysed the cells with 1× Passive Lysis Buffer (Promega) at room temperature. • 10. Counted relative luciferase activity on the MicroBeta JET by injecting Luciferase Assay Reagent II (PROMEGA).
The use of the above assay in measuring TGF-β responsive activity is described in Wrana, et al. Cell 71: 1003-1014 (1992).

IC50, < 20 µM:
Cc1cccc(-c2nn3c(c2-c2ccnc4ccccc24)CC(c2ccc(F)cc2)C3)n1 (single isomer, unassigned) [4-[5-(4-Fluoro-phenyl)-2-(6-methyl-pyridin-2-yl)-5,6-dihydro-4H-pyrrolo[1,2-b]pyrazol-3-yl]-quinoline]
Cc1cccc(-c2nn3c(c2-c2cccc4ccccc24)CCC3)n1 [2-(6-methyl-pyridin-2-yl)-3-naphthalen-1-yl-5,6-dihydro-4H-pyrrolo[1,2-b]pyrazole]
Cc1cccc(-c2nn3c(c2-c2ccnc4ccc(C(C)(C)O)cc24)CCC3)n1 [2-{4-[2-(6-Methyl-pyridin-2-yl)-5,6-dihydro-4H-pyrrolo[1,2-b]pyrazol-3-yl]-quinolin-6-yl}-propan-2-ol]
Clc1cc(-c2c(-c3ccccn3)nn3c2CCC3)ccn1 [3-(2-Chloro-pyridin-4-yl)-2-pyridin-2-yl-5,6-dihydro-4H-pyrrolo[1,2-b]pyrazole]
NNC(=O)c1ccc2nccc(-c3c(-c4ccccn4)nn4c3CCC4)c2c1 [4-(2-Pyridin-2-yl-5,6-dihydro-4H-pyrrolo[1,2-b]pyrazol-3-yl)-quinoline-6-carboxylic acid hydrazide]
OCC1CCc2c(-c3ccnc4ccccc34)c(-c3ccccn3)nn21 (centres unmarked) [4-(6-Hydroxymethyl-2-pyridin-2-yl-5,6-dihydro-4H-pyrrolo[1,2-b]pyrazol-3yl)-quinoline]
COC(=O)c1ccc2nccc(-c3c(-c4cccc(C)n4)nn4c3CCC4)c2c1 [4-[2-(6-Methyl-pyridin-2-yl)-5,6-dihydro-4H-pyrrolo[1,2-b]pyrazol-3-yl]-quinoline-6-carboxylic acid methyl ester]
Cc1cccc(-c2nn3c(c2-c2ccc(F)cc2)CC(c2ccc(Cl)cc2)C3)n1 (centres unmarked) [5-(4-Chloro-phenyl)-3-(4-fluoro-phenyl)-2-(6-methyl-pyridin-2-yl)-5,6-dihydro-4H-pyrrolo[1,2-b]pyrazole]

The compounds below were run against T2, TGF-β Type II (RII WT) receptor (Homo sapiens, UniProt P37173) (assay: TGF-β Receptor II (RII WT) in vitro kinase reaction). Conditions: 6×-HIS cytoplasmic kinase domain, 4 uM ATP, 30° C., 40 min.
T2 construct: The 6×-HIS tagged cytoplasmic kinase domain of each receptor was expressed and purified from Sf9 insect cell lysates; 6xHis; made in house; host or cells: Sf9 insect cells
T2 sequence (P37173 244-544 limits assumed): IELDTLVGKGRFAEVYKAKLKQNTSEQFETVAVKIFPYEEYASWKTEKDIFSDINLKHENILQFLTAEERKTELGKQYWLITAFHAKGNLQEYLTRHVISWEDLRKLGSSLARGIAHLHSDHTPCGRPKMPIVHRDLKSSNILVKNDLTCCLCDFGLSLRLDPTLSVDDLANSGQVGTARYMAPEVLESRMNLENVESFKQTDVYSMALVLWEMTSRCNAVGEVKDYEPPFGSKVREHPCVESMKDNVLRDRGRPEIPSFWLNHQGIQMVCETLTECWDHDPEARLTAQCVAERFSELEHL
Format: biochemical
Description: as §1, §2, §3
Cell lysates were clarified: by centrifugation and […] filtered prior to purification by Ni/NTA affinity chromatography (Qiagen).
Equilibrate with 10 CV of LB, load sample, wash with 10 CV RIPA buffer (50 mM Tris pH 7.5, 150 mM NaCl, 1% NP40, 1 mM EDTA, 0.25% sodium deoxycholate, added fresh 20 mM β-mercaptoethanol, 1 mM PMSF), wash with 10 CV LB, wash with 10 CV 1×KB (50 mM Tris pH 7.5, 150 mM NaCl, 4 mM MgCl2, 1 mM NaF, 2 mM β-mercaptoethanol), elute with a linear gradient of 1×KB containing 200 mM Imidazole.
Both enzymes were approximately 90% pure and had autophosphorylation activity.
as §4, §5

IC50, < 20 µM:
OCCCSc1ccc2c(-c3c(-c4ccccn4)nn4c3CCC4)ccnc2c1 [3-[4-(2-Pyridin-2-yl-5,6-dihydro-4H-pyrrolo[1,2-b]pyrazol-3-yl)-quinolin-7-ylsulfanyl]-propan-1-ol]
CNC(=O)c1ccc2c(-c3c(-c4ccccn4)nn4c3CCC4)ccnc2c1 [4-(2-Pyridin-2-yl-5,6-dihydro-4H-pyrrolo[1,2-H]pyrazol-3-yl)-quinoline-7-carboxylic acid methylamide]

Each compound was assayed against T3, p38α/SAPK2α (Homo sapiens, UniProt Q16539) (assay: p38α in vitro kinase assay). Conditions: 5 nM p38α, 62.5 uM EGFR substrate, 100 uM ATP, 30° C., 40 min.
T3 construct: purchased Upstate Biotechnology 14-251
Format: biochemical
Description: p38α in vitro Kinase Assay
Active p38α/SAPK2α was purchased from Upstate Biotechnology (cat#14-251). A known p38α substrate from EGFR was used in the assay (Young, et al. (1997) JBC 272: 12116-12121).
Reactions were performed in 1× kinase buffer (25 mM Tris-HCl pH 7.5, 5 mM β-glycerophosphate, 2 mM DTT, 0.1 mM Na3VO4, 10 mM MgCl2, 1 uM Microcystin) with 5 nM p38α, 62.5 uM substrate, 40 uM to 0.2 nM compound dilution series in 1×KB/16% DMSO (final 4% DMSO concentration). Reactions were started by addition of 100 uM ATP (final concentration) with 1 uCi ^33P-γ-ATP in 1×KB and incubated at 30° C. for 40 min. Reactions were stopped with H3PO4 and quantitated on Millipore PH phosphocellulose filter plates by liquid scintillation counting on a MicroBeta JET.

T3 sequence (Q16539 whole entry): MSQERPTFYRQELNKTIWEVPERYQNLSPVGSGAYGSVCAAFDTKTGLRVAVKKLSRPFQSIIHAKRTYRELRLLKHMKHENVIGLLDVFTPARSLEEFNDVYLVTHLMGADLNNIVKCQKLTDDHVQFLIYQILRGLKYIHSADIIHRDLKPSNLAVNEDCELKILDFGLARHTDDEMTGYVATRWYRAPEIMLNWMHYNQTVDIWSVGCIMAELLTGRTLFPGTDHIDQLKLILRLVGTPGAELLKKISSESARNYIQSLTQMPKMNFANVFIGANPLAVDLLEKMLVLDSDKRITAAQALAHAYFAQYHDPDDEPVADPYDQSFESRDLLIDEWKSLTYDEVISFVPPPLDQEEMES

IC50, < 20 µM:
CN(C)CC(=O)Nc1ccc2c(-c3c(-c4ccccn4)nn4c3CCC4)ccnc2c1 [2-Dimethylamino-N-[4-(2-pyridin-2-yl-5,6-dihydro-4H-pyrrolo[1,2-b]pyrazol-3-yl)-quinolin-7-yl]-acetamide]
Cc1cccc(-c2nn3c(c2-c2ccc4c(c2)OCO4)CCC3)n1 [3-Benzo[1,3]dioxol-5-yl-2-(6-methyl-pyridin-2-yl)-5,6-dihydro-4H-pyrrolo[1,2-b]pyrazole]
c1ccc(-c2nn3c(c2-c2ccc4ccccc4c2)CCC3)nc1 [3-Naphthalen-2-yl-2-pyridin-2-yl-5,6-dihydro-4H-pyrrolo[1,2-b]pyrazole]
OCCCSc1ccc2c(-c3c(-c4ccccn4)nn4c3CCC4)ccnc2c1 [3-[4-(2-Pyridin-2-yl-5,6-dihydro-4H-pyrrolo[1,2-b]pyrazol-3-yl)-quinolin-7-ylsulfanyl]-propan-1-ol]
CNC(=O)c1ccc2c(-c3c(-c4ccccn4)nn4c3CCC4)ccnc2c1 [4-(2-Pyridin-2-yl-5,6-dihydro-4H-pyrrolo[1,2-H]pyrazol-3-yl)-quinoline-7-carboxylic acid methylamide]
O=C(NCCc1c[nH]cn1)c1ccc2c(-c3c(-c4ccccn4)nn4c3CCC4)ccnc2c1 [4-(2-Pyridin-2-yl-5,6-dihydro-4H-pyrrolo[1,2-b]pyrazol-3-yl)-quinoline-7-carboxylic acid [2-(1H-imidazol-4-yl)-ethyl]-amide]
Fc1ccc(-c2nn3c(c2-c2ccnc4ccccc24)CCC3)cc1 [4-[2-(4-Fluoro-phenyl)-5,6-dihydro-4H-pyrrolo[1,2-b]pyrazol-3-yl]-quinoline]
Cc1cccc(-c2nn3c(c2-c2ccnc4ccc(C(=O)O)cc24)CCC3)n1 [4-[2-(6-Methyl-pyridin-2-yl)-5,6-dihydro-4H-pyrrolo[1,2-b]pyrazol-3-yl]-quinoline-6-carboxylic acid]
Cc1cccc(-c2nn3c(c2-c2ccnc4ccc(-c5ccc(F)cc5)cc24)CCC3)n1 [6-(4-Fluoro-phenyl)-4-[2-(6-methyl-pyridin-2-yl)-5,6-dihydro-4H-pyrrolo[1,2-b]pyrazol-3-yl]-quinoline]
CSc1ccc2nccc(-c3c(-c4ccccn4)nn4c3CCC4)c2c1 [6-Methylsulfanyl-4-(2-pyridin-2-yl-5,6-dihydro-4H-pyrrolo[1,2-b]pyrazol-3-yl)-quinoline]
c1ccc(-c2nn3c(c2-c2ccnc4cc(OCCCn5ccnc5)ccc24)CCC3)nc1 [7-(3-Imidazol-1-yl-propoxy)-4-(2-pyridin-2-yl-5,6-dihydro-4H-pyrrolo[1,2-b]pyrazol-3-yl)-quinoline]
Cc1cccc(-c2nn3c(c2-c2ccnc4cc(N)ccc24)CCC3)n1 [7-Amino-4-[2-(6-Methyl-pyridin-2-yl)-5,6-dihydro-4H-pyrrolo[1,2-b]pyrazol-3-yl]-quinoline]
COc1ccc2c(-c3c(-c4ccccn4)nn4c3CCC4)ccnc2c1 [7-Methoxy-4-(2-pyridin-2-yl-5,6-dihydro-4H-pyrrolo[1,2-b]pyrazol-3-yl)-quinoline]
CN1CCN(CCCOc2ccc3c(-c4c(-c5ccccn5)nn5c4CCC5)ccnc3c2)CC1 [7-[3-(4-Methyl-piperazin-1-yl)-propoxy]-4-(2-pyridin-2-yl-5,6-dihydro-4H-pyrrolo[1,2-b]pyrazol-3-yl)-quinoline]
Cc1cccc(-c2nn3c(c2-c2ccc(F)cc2)CC[C@@H]3CC#N)n1 [(R)-[3-(4-Fluoro-phenyl)-2-(6-methyl-pyridin-2-yl)-5,6-dihydro-4H-pyrrolo[1,2-b]pyrazol-6-yl]-acetonitrile]
